From article PMC10606834, “Is the Neuropeptide PEN a Ligand of GPR83?” (International Journal of Molecular Sciences, 2023)

How the values were obtained:
[1] = system: GPR83 with chimeric Gα16/i3 protein (CHO cells); settings: CHO cells transfected with GPR83 and chimeric Gα16/i3 protein; ref [10]; cited from earlier work
Source text: In the present study, evidence for a molecular interaction of the neuropeptide PEN with the cell surface receptor GPR83 could not be found.

[2] = system: GPR83 and GPR83del, with or without HA tag (HEK293 cells; wild-type HEK293 as comparison); assay: Competitive radioligand binding assay, GPR83; set-up: species or system human
Source text: One of the most proven methods for quantitatively analyzing the interaction of biomolecules is the competitive radioligand binding assay. […] To safeguard against possible interference of the added Tyr with ligand–receptor binding, two peptides were created and are as follows: one with the Tyr on the aminoterminal end (Tyr-PEN), and the other with Tyr added on the carboxyterminus (PEN-Tyr). Radiolabeled ^125I-PEN-Tyr and ^125I-Tyr-PEN were then used on wild-type HEK293 cells and HEK293 cells expressing various forms of GPR83 (full-length or deletion variant, with or without HA tag) in competition with different concentrations of natural PEN or Tyr-PEN, ranging from 1 pM to 1 µM.
Figure 5 HEK293 wild-type cells and HEK293 cells overexpressing various forms of GPR83 were used in radioligand binding assays with two different radioactively labeled PEN peptides: [^125I]-Tyr-PEN or [^125I]-PEN-Tyr. (A) Radioligand [^125I]-PEN-Tyr in competition with unlabeled wild-type PEN. (B) Radioligand [^125I]-Tyr-PEN in competition with unlabeled wild-type PEN. (C) Radioligand [^125I]-PEN-Tyr in competition with unlabeled wild-type PEN. (D) Radioligand [^125I]-Tyr-PEN in competition with Tyr-PEN. […]
Two variants of human PENs were utilized for radioiodination in this study: one with a tyrosine added at the aminoterminal end (Tyr-PEN: […]-NH2), and one with an additional tyrosine attached to the carboxyterminal end (PEN-Tyr: […]-NH2). Both were labelled with ^125I using the chloramine-T method. Chloramine-T and sodium metabisulfite solutions were freshly prepared in water. For labelling, 10 µL of peptide (stock 1 mM) with 15 µL of sodium phosphate buffer (0.5 M, pH 7.6) was mixed with 37 MBq carrier-free Na^125I (NEZ033L010MC, Perkin Elmer, Waltham, MA, USA). A 4 μL volume of chloramine T (1 mg/mL) was added to start the reaction, and after 30 s, 4 μL sodium metabisulfite (2 mg/mL) was added to stop the iodination. The labeled radioactive peptide was separated from unlabeled peptide with HPLC purification (Agilent ZORBAX 300 Extend-C18 column) using a gradient from 20–50% acetonitrile (+0.1% TFA) against water (+0.1% TFA) for 20 min. To determine the retention time of the radioactive peptide, 1–2 µL of the reaction mixture was analyzed before the purification run. The fraction containing the radiolabeled peptide peak was then collected, diluted with binding buffer to prevent radioautolysis, aliquoted, and stored at −80 °C.
4.10. Radioligand Binding Assay
For competitive radioligand binding assay, approximately 50,000 cells/well were seeded in a 96-well plate incubated overnight at 37 °C. Next day, cells were incubated in binding buffer (50 mM HEPES pH 7.4, 5 mM MgCl2, 1 mM CaCl2, 0.5% BSA, cOmplete protease inhibitors) containing 100,000 counts per minute of ^125I-labelled peptide, with increasing concentrations of unlabeled peptide. After 2 h of incubation, cells were washed for 2–3 times with ice-cold washing buffer (50 mM Tris-HCl, pH 7.4, 125 mM NaCl, 0.05% BSA) and lysed with 1 N NaOH (80 µL/well). The lysed cells were transferred to vials and measured in a gamma counter (Wallac 1470 Wizard, Perkin Elmer, Waltham, MA, USA). Obtained cpm values were plotted with GraphPad Prism 7, and the data were fitted using nonlinear regression (one site—fit Ki, one site—fit logIC50).

AADHDVGSELPPEGVLGALLRV [PEN, batch #1 synthesized, batch #2 purchased from Phoenix Pharmaceuticals]
intracellular Ca2+ mobilization [1]: PEN-induced intracellular Ca^2+ mobilization
concentration-dependent displacement of radioligand ([2]; unlabeled peptide 1 pM to 1 µM versus 125I-PEN-Tyr or 125I-Tyr-PEN, HEK293 wild-type and GPR83 / GPR83del with or without HA tag, pH 7.4, 2 h): neither of these different assay conditions led to a PEN-GPR83 binding signal above background or a concentration-dependent displacement of the radioligand
interaction with GPR83 in radioligand binding assay ([2]; up to four GPR83-overexpressing cell clones, two radiolabeled PEN variants, whole cells): no interaction could be detected between PEN and GPR83
